Experimental data published in patent publication US6413990B1, “Arylsulphonamide-substituted benzimidazoles having tryptase-inhibiting activity” (Boehringer Ingelheim Pharma KG, priority 1999, dated 2002).
Structures can show the parent of a compound that is named as a salt.

Legend:
rh beta tryptase = molecular target: T1, rh beta tryptase (Homo sapiens, UniProt Q15661); assay: tryptase inhibition test (cleavage of N-p-tosyl-Gly-Pro-Lys-para-nitroaniline, p-nitroaniline measured at 405 nm); type: biochemical; settings: Tris HCl buffer pH 7.4 with calcium and heparin, 37° C., substrate 0.6 mM, 5 minutes pre-incubation, 5 minutes incubation
T1 construct: purchased Promega
Method: The compounds according to the invention are characterised by their tryptase-inhibiting activity. This ability to inhibit tryptase was investigated using the test described below.
The measurement is carried out in Tris HCl buffer (100 mM), which additionally contains calcium (5 mM) and heparin ([…]), at pH 7.4. The standard used is rh beta tryptase which may be obtained commercially from Promega, for example. The substrate used is N-p-tosyl-Gly-Pro-Lys-para-nitroaniline in a concentration of 0.6 mM. The substrate is digested with tryptase to form p-nitroaniline which can be measured at 405 nm. Usually, an incubation period of 5 minutes and an incubation temperature of 37° C. are chosen. The enzyme activity used is 0.91 U/ml. The measurements are carried out in an Autoanalyser (Cobas Bio) made by Hofmann LaRoche. The potential inhibitory substances are used in concentrations of 10 μM in the screening, the inhibition of the tryptase being given in percent. The IC50 is determined at over 70% inhibition (concentration at which 50% of the enzyme activity is inhibited). After 5 minutes pre-incubation of the potential inhibitory substances, the substrate is added to start the reaction, the formation of p-nitroaniline being taken as a measurement of the enzyme activity after 5 minutes, after testing the linearity.
The data obtained after carrying out the tests described above (IC50 values) can be found in Table 2.

T1 sequence (Q15661 31-275): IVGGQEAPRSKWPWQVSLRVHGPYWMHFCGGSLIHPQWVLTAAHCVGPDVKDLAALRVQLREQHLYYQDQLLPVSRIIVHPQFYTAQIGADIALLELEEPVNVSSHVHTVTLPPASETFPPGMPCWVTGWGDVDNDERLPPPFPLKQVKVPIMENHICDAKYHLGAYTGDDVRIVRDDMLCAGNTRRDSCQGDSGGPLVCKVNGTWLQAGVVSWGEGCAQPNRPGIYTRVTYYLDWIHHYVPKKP

IC50 (rh beta tryptase) | melting point | SMILES
49 nM | 88 to 90 °C | CCN(CC)CCN(c1ccc2c(c1)nc(CCc1ccc(C(=N)N)cc1)n2C)S(=O)(=O)c1ccc(Cl)cc1 [Example 10, N-{2-[2-(4-amidinophenyl)-ethyl]-1-methyl-benzimidazol-5-yl}-N-diethylaminoethyl-(4-chloro-benzenesulphonamide)]
 | 190 to 200 °C | CCN(CC)CCN(c1ccc2c(c1)nc(CCc1ccc(C(=N)N)cc1)n2C)S(=O)(=O)c1ccc(OC)cc1 (as salt: hydrochloride) [Example 12, N-{2-[2-(4-amidinophenyl)-ethyl]-1-methyl-benzimidazol-5-yl}-N-diethylaminoethyl-(4-methoxy-benzenesulphonamide)-trihydrochloride]
